Data as given in ChEMBL document CHEMBL5143529, “Design, synthesis, and biological evaluation of novel (4-(1,2,4-oxadiazol-5-yl)phenyl)-2-aminoacetamide derivatives as multifunctional agents for the treatment of Alzheimer's disease” (Eur J Med Chem, 2022).

Legend:
[1] = Cytotoxicity against rat PC-12 cells assessed as cell viability at 50 uM incubated for 24 hrs by MTT assay relative to control; format: toxicity, cell-based; conditions: read-out: Activity
cells = conditions: Mus musculus, BV-2
Description: Inhibition of NO production in LPS-induced mouse BV-2 cells pretreated for 1 hr followed by LPS stimulation and measured after 24 hrs by ELISA

Cholinesterase = Cholinesterase (Equus caballus, UniProt P81908)
Sequence of Cholinesterase (P81908 whole entry): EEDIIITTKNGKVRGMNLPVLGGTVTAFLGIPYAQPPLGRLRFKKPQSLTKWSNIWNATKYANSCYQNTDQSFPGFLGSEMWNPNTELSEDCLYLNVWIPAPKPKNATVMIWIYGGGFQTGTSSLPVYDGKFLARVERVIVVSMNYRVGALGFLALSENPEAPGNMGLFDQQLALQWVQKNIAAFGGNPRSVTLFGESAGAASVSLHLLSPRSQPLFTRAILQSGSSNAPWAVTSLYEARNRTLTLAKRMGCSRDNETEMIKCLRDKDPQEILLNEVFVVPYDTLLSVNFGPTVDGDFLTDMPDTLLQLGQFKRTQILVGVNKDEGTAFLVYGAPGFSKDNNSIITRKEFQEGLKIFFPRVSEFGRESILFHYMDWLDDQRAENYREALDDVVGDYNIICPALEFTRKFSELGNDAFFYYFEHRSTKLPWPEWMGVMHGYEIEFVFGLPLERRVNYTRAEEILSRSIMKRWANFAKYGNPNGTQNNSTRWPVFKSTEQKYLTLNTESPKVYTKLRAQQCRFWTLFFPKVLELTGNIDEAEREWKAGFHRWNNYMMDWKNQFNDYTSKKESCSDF
Description: Inhibition of equine serum BuChE using butyrylthiocholine iodide as substrate preincubated for 20 mins followed by substrate addition and measured after 5 mins by DTNB-reagent based Ellman's method

PC-12 [2] = assay: Neuroprotective activity against H202-induced cell death in rat PC-12 cells assessed as cell viability at 5 uM pretreated for 3 hrs followed by H2O2 stimulation and measured after 24 hrs by MTT assay relative to control; format: functional; conditions: time 27 hrs, read-out: Activity
Acetylcholinesterase = Acetylcholinesterase (Electrophorus electricus, UniProt O42275); assay: Inhibition of electric eel AChE using acetylthiocholine iodide as substrate preincubated for 20 mins followed by substrate addition and measured after 5 mins by DTNB-reagent based Ellman's method
Sequence of Acetylcholinesterase (O42275 whole entry): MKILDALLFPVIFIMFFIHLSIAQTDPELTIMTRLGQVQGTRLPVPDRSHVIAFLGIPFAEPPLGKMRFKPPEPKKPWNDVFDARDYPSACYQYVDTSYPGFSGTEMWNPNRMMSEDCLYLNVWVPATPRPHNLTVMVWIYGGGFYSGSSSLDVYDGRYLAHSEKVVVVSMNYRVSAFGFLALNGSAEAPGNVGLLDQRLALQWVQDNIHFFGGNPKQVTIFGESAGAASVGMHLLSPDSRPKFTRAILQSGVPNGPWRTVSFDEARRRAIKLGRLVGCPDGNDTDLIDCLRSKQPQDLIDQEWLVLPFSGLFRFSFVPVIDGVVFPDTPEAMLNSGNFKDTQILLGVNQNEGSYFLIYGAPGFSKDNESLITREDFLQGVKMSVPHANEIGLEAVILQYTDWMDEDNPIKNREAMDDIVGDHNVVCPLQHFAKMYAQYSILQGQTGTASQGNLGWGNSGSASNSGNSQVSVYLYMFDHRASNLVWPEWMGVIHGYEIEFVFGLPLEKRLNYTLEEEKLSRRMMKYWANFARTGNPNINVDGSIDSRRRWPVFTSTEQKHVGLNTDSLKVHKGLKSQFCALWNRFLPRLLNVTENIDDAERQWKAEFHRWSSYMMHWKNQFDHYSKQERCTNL

PC-12 [3] = assay: Neuroprotective activity against H202-induced cell death in rat PC-12 cells assessed as cell viability at 20 uM pretreated for 3 hrs followed by H2O2 stimulation and measured after 24 hrs by MTT assay relative to control; format: functional; conditions: time 27 hrs, read-out: Activity
[4] = Cytotoxicity against rat PC-12 cells assessed as cell viability at 25 uM incubated for 24 hrs by MTT assay relative to control; format: toxicity, cell-based; conditions: read-out: Activity
[5] = Potency index, ratio of resveratrol IC50 to test compound IC50 for inhibition of NO production in LPS-induced mouse BV-2 cells pretreated for 1 hr followed by LPS stimulation and measured after 24 hrs by ELISA; format: functional; conditions: time 25 hrs

## O=C(CNCc1ccc(C(F)(F)F)cc1)Nc1ccc(-c2nc(-c3ccnc(Nc4ccc(OC(F)(F)F)cc4)c3)no2)cc1
[1]
  viability at 24 h, 50 µM: 99.4%
cells
  IC50: 8.48 µM
Cholinesterase
  IC50: 30.9 µM
PC-12 [2]
  viability at 5 µM: 25.7%
Acetylcholinesterase
  IC50: > 50 µM
PC-12 [3]
  viability at 20 µM: 33%
[4]
  viability at 24 h, 25 µM: 99.7%

## CCCCNCC(=O)Nc1ccc(-c2nc(-c3ccnc(Nc4ccc(OC(F)(F)F)cc4)c3)no2)cc1
[1]
  viability at 24 h, 50 µM: 98.9%
cells
  IC50: 8.24 µM
Cholinesterase
  IC50: 15.7 µM
PC-12 [2]
  viability at 5 µM: 40%
Acetylcholinesterase
  IC50: > 50 µM
PC-12 [3]
  viability at 20 µM: 44.4%
[4]
  viability at 24 h, 25 µM: 99.9%

## O=C(CNCc1ccccc1)Nc1ccc(-c2nc(-c3ccnc(Nc4ccc(OC(F)(F)F)cc4)c3)no2)cc1
[1]
  viability at 24 h, 50 µM: 99.5%
cells
  IC50: 7.48 µM
Cholinesterase
  IC50: 39.2 µM
PC-12 [2]
  viability at 5 µM: 43.2%
Acetylcholinesterase
  IC50: > 50 µM
PC-12 [3]
  viability at 20 µM: 53.5%
[4]
  viability at 24 h, 25 µM: 99.7%

## COc1cccc(NCC(=O)Nc2ccc(-c3nc(-c4ccnc(Nc5ccc(OC(F)(F)F)cc5)c4)no3)cc2)c1
[1]
  viability at 24 h, 50 µM: 98.3%
cells
  IC50: 13.2 µM
Cholinesterase
  IC50: 33.5 µM
PC-12 [2]
  viability at 5 µM: 30.7%
Acetylcholinesterase
  IC50: > 50 µM
PC-12 [3]
  viability at 20 µM: 33.7%
[4]
  viability at 24 h, 25 µM: 99.5%

## O=C(CNc1ccc(Cl)cc1)Nc1ccc(-c2nc(-c3ccnc(Nc4ccc(OC(F)(F)F)cc4)c3)no2)cc1
[1]
  viability at 24 h, 50 µM: 98.2%
cells
  IC50: 2.58 µM
Cholinesterase
  IC50: 7.39 µM
PC-12 [2]
  viability at 5 µM: 43.6%
Acetylcholinesterase
  IC50: 45.2 µM
PC-12 [3]
  viability at 20 µM: 61.6%
[4]
  viability at 24 h, 25 µM: 98.8%

## O=C(CNc1ccc(C(F)(F)F)cc1)Nc1ccc(-c2nc(-c3ccnc(Nc4ccc(OC(F)(F)F)cc4)c3)no2)cc1
[1]
  viability at 24 h, 50 µM: 99.7%
cells
  IC50: 1.61 µM
Cholinesterase
  IC50: 1.88 µM
PC-12 [2]
  viability at 5 µM: 55.8%
Acetylcholinesterase
  IC50: 46.5 µM
PC-12 [3]
  viability at 20 µM: 61.7%
[4]
  viability at 24 h, 25 µM: 99.9%

## O=C(CNc1ccccc1)Nc1ccc(-c2nc(-c3ccnc(Nc4ccc(OC(F)(F)F)cc4)c3)no2)cc1
[1]
  viability at 24 h, 50 µM: 99.4%
cells
  IC50: 0.42 µM
Cholinesterase
  IC50: 14.1 µM
PC-12 [2]
  viability at 5 µM: 46.9%
Acetylcholinesterase
  IC50: > 50 µM
PC-12 [3]
  viability at 20 µM: 58.4%
[5]
  Ratio IC50: 26
[4]
  viability at 24 h, 25 µM: 99.8%

## COc1ccc(NCC(=O)Nc2ccc(-c3nc(-c4ccnc(Nc5ccc(OC(F)(F)F)cc5)c4)no3)cc2)cc1
[1]
  viability at 24 h, 50 µM: 98.7%
cells
  IC50: 6.95 µM
Cholinesterase
  IC50: > 50 µM
PC-12 [2]
  viability at 5 µM: 33.2%
Acetylcholinesterase
  IC50: > 50 µM
PC-12 [3]
  viability at 20 µM: 44.6%
[4]
  viability at 24 h, 25 µM: 99%

## O=C(CNC1CCCC1)Nc1ccc(-c2nc(-c3ccnc(Nc4ccc(OC(F)(F)F)cc4)c3)no2)cc1
[1]
  viability at 24 h, 50 µM: 98.2%
cells
  IC50: 2.66 µM
Cholinesterase
  IC50: 16.6 µM
PC-12 [2]
  viability at 5 µM: 44.1%
Acetylcholinesterase
  IC50: > 50 µM
PC-12 [3]
  viability at 20 µM: 57%
[4]
  viability at 24 h, 25 µM: 99.5%

## Cc1cccc(NCC(=O)Nc2ccc(-c3nc(-c4ccnc(Nc5ccc(OC(F)(F)F)cc5)c4)no3)cc2)c1
[1]
  viability at 24 h, 50 µM: 99.2%
cells
  IC50: 7.29 µM
Cholinesterase
  IC50: 20.2 µM
PC-12 [2]
  viability at 5 µM: 50.1%
Acetylcholinesterase
  IC50: > 50 µM
PC-12 [3]
  viability at 20 µM: 50.7%
[4]
  viability at 24 h, 25 µM: 99.6%

## O=C(CNc1cccc(F)c1)Nc1ccc(-c2nc(-c3ccnc(Nc4ccc(OC(F)(F)F)cc4)c3)no2)cc1
[1]
  viability at 24 h, 50 µM: 99.3%
cells
  IC50: 3.16 µM
Cholinesterase
  IC50: 5.51 µM
PC-12 [2]
  viability at 5 µM: 39.4%
Acetylcholinesterase
  IC50: > 50 µM
PC-12 [3]
  viability at 20 µM: 58.5%
[4]
  viability at 24 h, 25 µM: 99.6%

## O=C(CNCc1ccc(F)cc1)Nc1ccc(-c2nc(-c3ccnc(Nc4ccc(OC(F)(F)F)cc4)c3)no2)cc1
[1]
  viability at 24 h, 50 µM: 99.8%
cells
  IC50: 9.23 µM
Cholinesterase
  IC50: 37.8 µM
PC-12 [2]
  viability at 5 µM: 41.9%
Acetylcholinesterase
  IC50: > 50 µM
PC-12 [3]
  viability at 20 µM: 48.6%
[4]
  viability at 24 h, 25 µM: 100%

## Cc1ccccc1NCC(=O)Nc1ccc(-c2nc(-c3ccnc(Nc4ccc(OC(F)(F)F)cc4)c3)no2)cc1
[1]
  viability at 24 h, 50 µM: 99.3%
cells
  IC50: 8.74 µM
Cholinesterase
  IC50: 25.8 µM
PC-12 [2]
  viability at 5 µM: 45.2%
Acetylcholinesterase
  IC50: > 50 µM
PC-12 [3]
  viability at 20 µM: 55.2%
[4]
  viability at 24 h, 25 µM: 99.6%

## Cc1ccc(NCC(=O)Nc2ccc(-c3nc(-c4ccnc(Nc5ccc(OC(F)(F)F)cc5)c4)no3)cc2)cc1
[1]
  viability at 24 h, 50 µM: 99.8%
cells
  IC50: 5.97 µM
Cholinesterase
  IC50: 19.3 µM
PC-12 [2]
  viability at 5 µM: 37.9%
Acetylcholinesterase
  IC50: > 50 µM
PC-12 [3]
  viability at 20 µM: 49.1%
[4]
  viability at 24 h, 25 µM: 100%

## O=C(CNCc1cccc(Cl)c1)Nc1ccc(-c2nc(-c3ccnc(Nc4ccc(OC(F)(F)F)cc4)c3)no2)cc1
[1]
  viability at 24 h, 50 µM: 99.7%
cells
  IC50: 14.6 µM
Cholinesterase
  IC50: > 50 µM
PC-12 [2]
  viability at 5 µM: 33.4%
Acetylcholinesterase
  IC50: > 50 µM
PC-12 [3]
  viability at 20 µM: 43.9%
[4]
  viability at 24 h, 25 µM: 99.8%

## O=c1c(O)c(-c2ccc(O)c(O)c2)oc2cc(O)cc(O)c12 [QUERCETIN]
[1]
  viability at 24 h, 50 µM: 99.5%
PC-12 [2]
  viability at 5 µM: 48.2%
PC-12 [3]
  viability at 20 µM: 59.4%
[4]
  viability at 24 h, 25 µM: 99.6%

## O=C(CNc1ccc(F)c(F)c1)Nc1ccc(-c2nc(-c3ccnc(Nc4ccc(OC(F)(F)F)cc4)c3)no2)cc1
[1]
  viability at 24 h, 50 µM: 97.3%
cells
  IC50: 4.8 µM
Cholinesterase
  IC50: 9.88 µM
PC-12 [2]
  viability at 5 µM: 35.7%
Acetylcholinesterase
  IC50: > 50 µM
PC-12 [3]
  viability at 20 µM: 45.8%
[4]
  viability at 24 h, 25 µM: 99.4%

## O=C(CNCc1cccc(F)c1)Nc1ccc(-c2nc(-c3ccnc(Nc4ccc(OC(F)(F)F)cc4)c3)no2)cc1
[1]
  viability at 24 h, 50 µM: 96.7%
cells
  IC50: 13 µM
Cholinesterase
  IC50: 45.3 µM
PC-12 [2]
  viability at 5 µM: 28.1%
Acetylcholinesterase
  IC50: > 50 µM
PC-12 [3]
  viability at 20 µM: 36.2%
[4]
  viability at 24 h, 25 µM: 98.4%

## O=C(CNC1CC1)Nc1ccc(-c2nc(-c3ccnc(Nc4ccc(OC(F)(F)F)cc4)c3)no2)cc1
[1]
  viability at 24 h, 50 µM: 99.7%
cells
  IC50: 5.67 µM
Cholinesterase
  IC50: 24.3 µM
PC-12 [2]
  viability at 5 µM: 33.5%
Acetylcholinesterase
  IC50: 48.9 µM
PC-12 [3]
  viability at 20 µM: 46.7%
[4]
  viability at 24 h, 25 µM: 100%

## O=C(CNc1cccc(Cl)c1)Nc1ccc(-c2nc(-c3ccnc(Nc4ccc(OC(F)(F)F)cc4)c3)no2)cc1
[1]
  viability at 24 h, 50 µM: 98.7%
cells
  IC50: 3.66 µM
Cholinesterase
  IC50: 12.8 µM
PC-12 [2]
  viability at 5 µM: 34.1%
Acetylcholinesterase
  IC50: > 50 µM
PC-12 [3]
  viability at 20 µM: 37.7%
[4]
  viability at 24 h, 25 µM: 99.4%

## O=C(CNc1ccc(Br)cc1)Nc1ccc(-c2nc(-c3ccnc(Nc4ccc(OC(F)(F)F)cc4)c3)no2)cc1
[1]
  viability at 24 h, 50 µM: 99.1%
cells
  IC50: 4.22 µM
Cholinesterase
  IC50: 10.5 µM
PC-12 [2]
  viability at 5 µM: 37.8%
Acetylcholinesterase
  IC50: > 50 µM
PC-12 [3]
  viability at 20 µM: 46.5%
[4]
  viability at 24 h, 25 µM: 99.7%

## CCCNCC(=O)Nc1ccc(-c2nc(-c3ccnc(Nc4ccc(OC(F)(F)F)cc4)c3)no2)cc1
[1]
  viability at 24 h, 50 µM: 99.5%
cells
  IC50: 7.82 µM
Cholinesterase
  IC50: 23.3 µM
PC-12 [2]
  viability at 5 µM: 41.4%
Acetylcholinesterase
  IC50: > 50 µM
PC-12 [3]
  viability at 20 µM: 52.8%
[4]
  viability at 24 h, 25 µM: 99.6%

## Oc1ccc(/C=C/c2cc(O)cc(O)c2)cc1 [RESVERATROL]
cells
  IC50: 11 µM

## CC(C)CNCC(=O)Nc1ccc(-c2nc(-c3ccnc(Nc4ccc(OC(F)(F)F)cc4)c3)no2)cc1
[1]
  viability at 24 h, 50 µM: 99.6%
cells
  IC50: 3.88 µM
Cholinesterase
  IC50: 29.4 µM
PC-12 [2]
  viability at 5 µM: 34.1%
Acetylcholinesterase
  IC50: > 50 µM
PC-12 [3]
  viability at 20 µM: 43.9%
[4]
  viability at 24 h, 25 µM: 99.9%
